Some test systems named below: MOLT-4 leukemia; SF-295 CNS; M14 melanoma; NCI/ADR-RES ovarian; SN12C renal; HOP-92 NSCLC; UACC-62 melanoma; UO-31 renal; ACHN renal; DU-145 prostate.
Holding throughout (experiment): NCI-60 cell line screen, 48 h

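Five concentrations, 48 hours, 96-well plates. GI50 = concentration required for 50% inhibition of growth. TGI: concentration producing complete growth inhibition.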 Where only a bound is given, the exact number is not on record here.

Turning to `OCCCCC#Cc1ccccc1C#Cc1ccc(C(F)(F)F)cc1`, the GI50 in the assay with MOLT-4 leukemia is 13.6 µM; with SF-295 CNS, 19.1 µM; with M14 melanoma, 17.1 µM; in the assay on NCI/ADR-RES ovarian, 15 µM; with SN12C renal it was 15.8 µM; in the assay with HOP-92 NSCLC it was 18 µM. The GI50 is 16 µM in the assay with UACC-62 melanoma, 16.3 µM in the assay on UO-31 renal, 17.5 µM in the assay with ACHN renal and 15.8 µM in the assay on DU-145 prostate. The TGI with MOLT-4 leukemia is 31.4 µM; with SF-295 CNS it was 34.5 µM; with M14 melanoma it was 38.3 µM; with NCI/ADR-RES ovarian it was 30.7 µM; with SN12C renal it was 29.6 µM; with HOP-92 NSCLC, 34.9 µM. Besides, the TGI with UACC-62 melanoma was found to be 29.8 µM; with UO-31 renal, 30.3 µM; with ACHN renal it was 31.2 µM; in the assay with DU-145 prostate, 31.7 µM.
On to `CNCc1ccc(-c2[nH]c3cc(F)cc4c3c2CCNC4=O)cc1`, for which the GI50 in the assay with MOLT-4 leukemia is 21.9 µM; with SF-295 CNS, 18.8 µM; with M14 melanoma, 16.6 µM; in the assay with NCI/ADR-RES ovarian it was 69.2 µM; in the assay with SN12C renal, 16.5 µM; in the assay with HOP-92 NSCLC it was 17.9 µM. Further, the GI50 in the assay on UACC-62 melanoma is 15 µM; in the assay with UO-31 renal it was 22.2 µM; in the assay on ACHN renal it was 18.7 µM; in the assay on DU-145 prostate, 16 µM. The TGI is 68 µM in the assay on MOLT-4 leukemia; 45.7 µM in the assay on SF-295 CNS; 32.7 µM in the assay on M14 melanoma; above 100 µM in the assay with NCI/ADR-RES ovarian; 48 µM in the assay on SN12C renal; above 69.5 µM in the assay with HOP-92 NSCLC. For the same compound, the TGI was 29.8 µM with UACC-62 melanoma, 76.2 µM in the assay on UO-31 renal, above 58.2 µM with ACHN renal and 32.3 µM in the assay with DU-145 prostate.
Turning to `COc1c(O)c2c3c(c1OC)-c1ccccc1CC3N(S(=O)(=O)c1ccc(C)cc1)CC2` (stereo not given), the GI50 in the assay on MOLT-4 leukemia was 2.14 µM; in the assay on SF-295 CNS, 2.07 µM; in the assay on M14 melanoma, 1.81 µM; with NCI/ADR-RES ovarian it was 1.49 µM; in the assay on SN12C renal, 2.59 µM; in the assay with HOP-92 NSCLC it was 1.41 µM. The GI50 with UACC-62 melanoma was 2.41 µM; with UO-31 renal, 2.02 µM; with ACHN renal, 2.91 µM; in the assay with DU-145 prostate it was 1.62 µM. In addition, the TGI in the assay on MOLT-4 leukemia was 10.9 µM; in the assay with SF-295 CNS it was 30.6 µM; in the assay with M14 melanoma, above 50 µM; with NCI/ADR-RES ovarian, 4.54 µM; with SN12C renal, above 50 µM; with HOP-92 NSCLC it was 29 µM. In addition, the TGI in the assay with UACC-62 melanoma was above 50 µM; with UO-31 renal it was above 50 µM; in the assay on ACHN renal it was above 50 µM; in the assay with DU-145 prostate it was 6.41 µM.
Turning to `COc1cc(OC)cc(-c2ccc(-c3ccc(C(=N)N)cn3)s2)c1`, the GI50 in the assay on MOLT-4 leukemia was 2.55 µM; in the assay with SF-295 CNS it was 1.79 µM; in the assay with M14 melanoma, 1.79 µM; in the assay on NCI/ADR-RES ovarian, 3.27 µM; in the assay on SN12C renal, 1.78 µM; with HOP-92 NSCLC, 1.7 µM. Further, the GI50 was 1.85 µM in the assay with UACC-62 melanoma, 1.65 µM in the assay on UO-31 renal, 1.81 µM with ACHN renal and 1.79 µM in the assay on DU-145 prostate. The TGI was 6.39 µM with MOLT-4 leukemia; 3.39 µM in the assay with SF-295 CNS; 3.47 µM in the assay with M14 melanoma; 11.6 µM in the assay with NCI/ADR-RES ovarian; 3.8 µM with SN12C renal; 3.52 µM in the assay with HOP-92 NSCLC. The TGI with UACC-62 melanoma is 3.54 µM; in the assay on UO-31 renal, 3.31 µM; in the assay with ACHN renal it was 3.2 µM; in the assay with DU-145 prostate, 3.22 µM.
With `N#CCC1(n2cc(-c3ncnc4[nH]ccc34)cn2)CN(C2CCN(C(=O)c3ccnc(C(F)(F)F)c3F)CC2)C1`, the GI50 was 49.9 µM with MOLT-4 leukemia; 53.9 µM with SF-295 CNS; above 100 µM in the assay on M14 melanoma; above 100 µM in the assay with NCI/ADR-RES ovarian; 69.8 µM with SN12C renal; 20.7 µM with HOP-92 NSCLC. Moreover, the GI50 with UACC-62 melanoma was 76.4 µM; in the assay with UO-31 renal, 49.2 µM; in the assay on ACHN renal it was above 100 µM; in the assay on DU-145 prostate, above 100 µM. The TGI in the assay with MOLT-4 leukemia, in the assay with SF-295 CNS, in the assay on M14 melanoma, with NCI/ADR-RES ovarian, with SN12C renal and with HOP-92 NSCLC was above 100 µM throughout. The TGI in the assay on UACC-62 melanoma, in the assay with UO-31 renal, in the assay with ACHN renal and in the assay with DU-145 prostate was above 100 µM in each case.
On to `Fc1ccc(-c2nn3c(COc4ccc(Cl)cc4)nnc3s2)cc1Oc1ccccc1`, for which the GI50 with MOLT-4 leukemia was 3.51 µM; with SF-295 CNS it was 15.2 µM; with M14 melanoma, above 49.5 µM; in the assay on NCI/ADR-RES ovarian, 30.5 µM; in the assay on SN12C renal it was above 46.1 µM; in the assay with HOP-92 NSCLC, 10.1 µM. Further, the GI50 in the assay with UACC-62 melanoma is 32.4 µM; in the assay on UO-31 renal, 24.4 µM; with ACHN renal, 31.4 µM; in the assay with DU-145 prostate, 48.5 µM. The TGI with MOLT-4 leukemia was 17.7 µM; with SF-295 CNS it was 33.5 µM; in the assay on M14 melanoma, above 79.3 µM; in the assay with NCI/ADR-RES ovarian it was 95.5 µM; in the assay with SN12C renal, above 67 µM; in the assay on HOP-92 NSCLC it was 21.7 µM. Besides, the TGI was above 63.4 µM with UACC-62 melanoma, above 100 µM in the assay on UO-31 renal, above 53.1 µM with ACHN renal and above 100 µM in the assay on DU-145 prostate.
Regarding `COc1ccc(/C=C/C(C)=N/OCC(=O)Nc2ccc(Cl)cc2)cc1`, the GI50 is 2.23 µM in the assay on MOLT-4 leukemia; 2.96 µM in the assay with SF-295 CNS; 3.01 µM with M14 melanoma; 2.9 µM in the assay with NCI/ADR-RES ovarian; 2.8 µM in the assay on SN12C renal; 0.561 µM with HOP-92 NSCLC. For the same compound, the GI50 is 1.21 µM with UACC-62 melanoma, 1.67 µM in the assay with UO-31 renal, 1.94 µM with ACHN renal and 4.11 µM in the assay with DU-145 prostate. Further, the TGI with MOLT-4 leukemia was 9.97 µM; in the assay on SF-295 CNS it was 14.9 µM; in the assay on M14 melanoma, 14.1 µM; in the assay on NCI/ADR-RES ovarian it was 15.3 µM; in the assay on SN12C renal it was above 47.7 µM; in the assay with HOP-92 NSCLC, 4.68 µM. For the same compound, the TGI is 6.46 µM with UACC-62 melanoma, 22 µM in the assay with UO-31 renal, above 38.9 µM with ACHN renal and 78.6 µM in the assay on DU-145 prostate.

Source of the values: PubChem BioAssay (NCI).
